We go through 1 molecule from patent US9975906B2, “Tricyclic heterocycle derivatives having HIV replication inhibitory effect” (Shionogi & Co., Ltd., priority 2014, dated 2018).

The nature of data set [1]: Metabolism Stability Test. The class given is in vitro ADME. The conditions noted are these: compound concentration 0.5 μmol/L, human liver microsomes, NADPH, 37° C., 30 minutes. As to the method:
Commercially available pooled human hepatic microsomes and a test compound were reacted for a constant time, then a remaining rate was calculated by comparing a reacted sample and an unreacted sample, thereby a degree of metabolism of the test compound in liver was assessed. A reaction was performed (oxidative reaction) at 37° C. for 0 minute or 30 minutes in the presence of 1 mmol/L NADPH in 0.2 mL of a buffer (50 mmol/L Tris-HCl, pH 7.4, 150 mmol/L potassium chloride, 10 mmol/L magnesium chloride) containing 0.5 mg protein/mL of human liver microsomes. After the reaction, 50 μL of the reaction solution was added to 100 μL of a methanol/acetonitrile=1/1 (v/v), mixed and centrifuged at 3000 rpm for 15 minutes. The test compound in the supernatant was quantified by LC/MS/MS, and a remaining amount of the test compound after the reaction wad calculated, letting a compound amount at 0 minute reaction time to be 100%. Hydrolysis reaction was performed in the absence of NADPH and glucuronidation reaction was in the presence of 5 mM UDP-glucuronic acid in place of NADPH, followed by similar operations. (Result) The residual rate of the compound concentration 0.5 μmol/L in the oxidation reaction was shown below.
Background: Liver microsomes are a subcellular fraction often used to study metabolism.

Data set [2] concerns the target T1, CYP2C19 (Homo sapiens, UniProt P33261).
T1 construct: enzyme, pooled human hepatic microsome 0.2 mg protein/mL; from tissue
The data set can be described thus: CYP Inhibition Assay (mephenytoin 4'-hydroxylation). The data set is classed as in vitro ADME. To be noted: pooled human hepatic microsome, 50 μmol/L S-mephenytoin, 15 minutes, 37° C. As to the method:
(§1) Using commercially available pooled human hepatic microsome, and employing, as markers, 7-ethoxyresorufin O-deethylation (CYP1A2), tolbutamide methyl-hydroxylation (CYP2C9), mephenytoin 4'-hydroxylation (CYP2C19), dextromethorphan O-demethylation (CYP2D6), and terfenadine hydroxylation (CYP3A4) as typical substrate metabolism reactions of human main five CYP enzyme forms (CYP1A2, 2C9, 2C19, 2D6, 3A4) an inhibitory degree of each metabolite production amount by a test compound was assessed. […] After the centrifugation at 3000 rpm for 15 minutes, resorufin (CYP1A2 metabolite) in the supernatant was quantified by a fluorescent multilabel counter and tolbutamide hydroxide (CYP2C9 metabolite), mephenytoin 4' hydroxide (CYP2C19 metabolite), dextrorphan (CYP2D6 metabolite), and terfenadine alcohol (CYP3A4 metabolite) were quantified by LC/MS/MS. A reaction system containing only DMSO which is a solvent for dissolving a drug was adopted as a control (100%), and the remaining activity (%) was calculated, then IC50 was calculated by reverse presumption with a logistic model using a concentration and an inhibition rate.

Data set [3] addresses T2, CYP1A2 (Homo sapiens, UniProt P05177).
T2 construct: enzyme, pooled human hepatic microsome 0.2 mg protein/mL; from tissue
T2 sequence (P05177 1-516): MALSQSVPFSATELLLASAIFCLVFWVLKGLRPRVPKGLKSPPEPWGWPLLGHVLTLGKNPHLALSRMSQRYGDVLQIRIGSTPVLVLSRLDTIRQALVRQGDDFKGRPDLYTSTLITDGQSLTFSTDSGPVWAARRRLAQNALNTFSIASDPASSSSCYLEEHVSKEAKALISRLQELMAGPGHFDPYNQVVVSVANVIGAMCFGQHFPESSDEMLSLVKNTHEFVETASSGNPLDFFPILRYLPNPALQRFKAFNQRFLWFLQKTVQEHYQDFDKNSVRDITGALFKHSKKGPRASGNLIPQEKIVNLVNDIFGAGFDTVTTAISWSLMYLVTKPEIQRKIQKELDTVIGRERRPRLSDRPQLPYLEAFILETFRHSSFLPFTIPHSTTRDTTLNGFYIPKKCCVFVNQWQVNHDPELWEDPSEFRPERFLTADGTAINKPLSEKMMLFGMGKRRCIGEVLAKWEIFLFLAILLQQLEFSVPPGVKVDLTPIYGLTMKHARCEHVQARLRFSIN
The data set can be described thus: CYP Inhibition Assay (7-ethoxyresorufin O-deethylation). The conditions noted are these: pooled human hepatic microsome, 0.5 μmol/L ethoxyresorufin, 15 minutes, 37° C. The class given is in vitro ADME. As to the method:
as §1

Data set [4] deals with T3, CYP2C9 (Homo sapiens, UniProt P11712).
T3 construct: enzyme, pooled human hepatic microsome 0.2 mg protein/mL; from tissue
The data set can be described thus: CYP Inhibition Assay (tolbutamide methyl-hydroxylation). The data set is classed as in vitro ADME. To be noted: pooled human hepatic microsome, 100 μmol/L tolbutamide, 15 minutes, 37° C. As to the method:
as §1

For data set [5], the target named is T4, CYP2D6 (Homo sapiens, UniProt P10635).
T4 construct: enzyme, pooled human hepatic microsome 0.2 mg protein/mL; from tissue
As to the kind of experiment: CYP Inhibition Assay (dextromethorphan O-demethylation). The class given is in vitro ADME. To be noted: pooled human hepatic microsome, 5 μmol/L dextromethorphan, 15 minutes, 37° C. As to the method:
as §1

Data set [6] addresses T5, CYP3A4 (Homo sapiens, UniProt P08684).
T5 construct: enzyme, pooled human hepatic microsome 0.2 mg protein/mL; from tissue
As to the kind of experiment: CYP Inhibition Assay (terfenadine hydroxylation). The data set is classed as in vitro ADME. To be noted: pooled human hepatic microsome, 1 μmol/L terfenedine, 15 minutes, 37° C. As to the method: as §1

Data set [7] can be described thus: Powder Solubility Test. The data set is classed as physicochemical. To be noted: thermodynamic from solid, shaken 1 hour at 37° C. Here is the method:
Appropriate amounts of the test substances are put into appropriate containers. To the respective containers are added 200 μL of JP-1 fluid (sodium chloride 2.0 g, hydrochloric acid 7.0 mL and water to reach 1000 mL), 200 μL of JP-2 fluid (phosphate buffer (pH 6.8) 500 mL and water 500 mL), and 200 μL of 20 mmol/L TCA (sodium taurocholate)/JP-2 fluid (TCA 1.08 g and JP-2 fluid to reach […]). IN the case that all amount of the test compound is dissolved after the addition of the test fluid, the test compound is added as appropriate. The containers are sealed, and shaken for 1 hour at 37° C. The mixtures are filtered, and 100 μL of methanol is added to each of he filtrate […] so that the filtrates are two-fold diluted. The dilution ratio may be changed if necessary. The dilutions are observed for bubbles and precipitates, and then the containers are sealed and shaken. Quantification is performed by HPLC with an absolute calibration method.

Molecules are shown by their SMILES. In brackets after ≈: the same amount, converted by molar mass. Read-outs that look alike come from different tables or passages of the source.

T3 sequence (P11712 whole entry): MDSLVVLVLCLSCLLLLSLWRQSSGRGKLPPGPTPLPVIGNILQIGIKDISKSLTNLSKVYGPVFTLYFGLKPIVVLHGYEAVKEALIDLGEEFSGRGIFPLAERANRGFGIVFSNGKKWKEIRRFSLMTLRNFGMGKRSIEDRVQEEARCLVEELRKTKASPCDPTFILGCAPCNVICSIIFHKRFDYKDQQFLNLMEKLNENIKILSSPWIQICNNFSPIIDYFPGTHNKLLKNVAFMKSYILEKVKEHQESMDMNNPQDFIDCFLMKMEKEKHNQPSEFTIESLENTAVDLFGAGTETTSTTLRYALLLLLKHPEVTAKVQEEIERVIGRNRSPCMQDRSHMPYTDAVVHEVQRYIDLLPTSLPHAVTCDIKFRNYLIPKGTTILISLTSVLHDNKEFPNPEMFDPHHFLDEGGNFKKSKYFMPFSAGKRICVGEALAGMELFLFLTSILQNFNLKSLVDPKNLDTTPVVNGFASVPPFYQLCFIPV
T1 sequence (P33261 whole entry): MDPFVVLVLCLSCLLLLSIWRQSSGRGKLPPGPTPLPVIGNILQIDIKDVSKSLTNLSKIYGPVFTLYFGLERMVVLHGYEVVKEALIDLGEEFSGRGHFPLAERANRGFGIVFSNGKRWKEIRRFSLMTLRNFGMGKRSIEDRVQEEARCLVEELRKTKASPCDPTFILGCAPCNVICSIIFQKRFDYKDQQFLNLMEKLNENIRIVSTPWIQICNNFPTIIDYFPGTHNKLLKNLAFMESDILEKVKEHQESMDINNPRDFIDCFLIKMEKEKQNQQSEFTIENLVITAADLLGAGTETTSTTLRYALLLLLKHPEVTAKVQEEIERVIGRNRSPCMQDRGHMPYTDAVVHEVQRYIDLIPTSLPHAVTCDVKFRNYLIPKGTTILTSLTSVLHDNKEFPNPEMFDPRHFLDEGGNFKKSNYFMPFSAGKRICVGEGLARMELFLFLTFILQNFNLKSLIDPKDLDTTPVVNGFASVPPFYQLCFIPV
T5 sequence (P08684 whole entry): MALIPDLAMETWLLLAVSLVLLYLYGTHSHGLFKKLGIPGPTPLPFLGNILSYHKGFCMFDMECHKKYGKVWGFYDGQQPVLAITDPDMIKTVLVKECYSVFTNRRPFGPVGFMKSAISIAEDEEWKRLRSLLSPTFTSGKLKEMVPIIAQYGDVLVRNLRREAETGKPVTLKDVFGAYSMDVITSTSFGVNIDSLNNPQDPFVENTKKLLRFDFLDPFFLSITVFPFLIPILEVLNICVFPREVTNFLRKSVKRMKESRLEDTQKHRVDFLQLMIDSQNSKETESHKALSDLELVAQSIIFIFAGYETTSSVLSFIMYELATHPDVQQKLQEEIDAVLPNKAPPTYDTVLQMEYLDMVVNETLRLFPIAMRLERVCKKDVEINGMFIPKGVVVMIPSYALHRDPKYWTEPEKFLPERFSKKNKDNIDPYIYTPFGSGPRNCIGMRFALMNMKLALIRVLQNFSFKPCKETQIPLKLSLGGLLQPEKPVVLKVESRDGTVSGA
T4 sequence (P10635 whole entry): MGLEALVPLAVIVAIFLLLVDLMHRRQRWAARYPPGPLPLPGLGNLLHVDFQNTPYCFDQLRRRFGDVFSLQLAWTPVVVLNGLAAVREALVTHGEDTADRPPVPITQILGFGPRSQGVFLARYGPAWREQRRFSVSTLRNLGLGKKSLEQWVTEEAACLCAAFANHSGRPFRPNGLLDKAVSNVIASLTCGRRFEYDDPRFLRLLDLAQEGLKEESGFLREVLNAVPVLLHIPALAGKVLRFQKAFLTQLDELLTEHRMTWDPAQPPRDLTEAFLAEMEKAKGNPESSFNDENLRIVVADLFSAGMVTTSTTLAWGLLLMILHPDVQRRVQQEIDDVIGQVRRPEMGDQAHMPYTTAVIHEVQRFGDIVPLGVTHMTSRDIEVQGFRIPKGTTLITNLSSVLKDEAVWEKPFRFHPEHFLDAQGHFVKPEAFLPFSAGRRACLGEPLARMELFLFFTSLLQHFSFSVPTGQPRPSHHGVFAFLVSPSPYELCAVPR

As for `Cc1ccc(-c2c([C@H](OC(C)(C)C)C(=O)O)c(C)c3c4c2cc(-c2ccnc(-c5ccc6c(cnn6C)c5)c2)n4CCN3CCN(C)C)cc1` [Compound I-034], the “residual rate in the oxidation reaction” value in data set [1] is on record as more than 99.9%. Besides, the IC50 in data set [2], in data set [3], in data set [4], in data set [5] and in data set [6] was more than 20 µM throughout. Besides, the solubility at 1 h in data set [7] (aqueous buffer, JP-2 fluid (phosphate buffer pH 6.8), read-out: powder solubility, JP-2 fluid) is 0.603 µg/mL (≈ 0.899 µM); in data set [7] (pH 1.2, simulated gastric fluid, JP-1 fluid, read-out: powder solubility, JP-1 fluid) it was more than 1000 µg/mL; in data set [7] (pH 6.8, fassgf or other biorelevant, 20 mmol/L TCA (sodium taurocholate)/JP-2 fluid, read-out: powder solubility, 20 mmol/L TCA/JP-2 fluid), more than 1000 µg/mL.
